Test results published in article PMC7504817, “Phenylalanine Stereoisomers of CJ-15,208 and [D-Trp]CJ-15,208 Exhibit Distinctly Different Opioid Activity Profiles” (Molecules, 2020).
Where two headings read alike, the source gives them in different places.

Legend:
[1] = tested on: C57BL/6J mice; assay: 55 °C warm-water tail-withdrawal assay (antinociception); type: in vivo, mouse; design: key to ED50 p.o. (symbol: not calculable): ~: Maximum antinociception not achieved, precluding calculation of an ED50 value; conditions: for antinociception at the highest oral dose tested: 30 mg/kg
Method: For intracerebroventricular (i.c.v.) administration the macrocyclic tetrapeptides were dissolved in dimethyl sulfoxide (DMSO), followed by addition of sterile saline (0.9%) so that the final vehicle was 50% DMSO and 50% saline, and the i.c.v. injections performed as described previously. This concentration of DMSO was not observed to have antinociceptive or behavioral effects in previous use. For per os (p.o.) administration the macrocyclic tetrapeptides were administered in 10% Solutol in 0.9% saline. All solutions for animal administration were prepared fresh daily.
The 55 °C warm-water tail-withdrawal assay was performed in mice as previously described, with the latency of the mouse to withdraw its tail from the water taken as the endpoint (a cut-off time of 15 sec was used in this assay). Antinociception was calculated according to the following formula: % antinociception = 100 × (test latency − control latency)/(15 − control latency). Tail-withdrawal data points are the means of 8–16 mice, unless otherwise indicated, with SEM shown by error bars.
All dose-response lines were analyzed by regression, and ED50 (effective dose producing 50% antinociception) values and 95% confidence intervals (C.I.) determined using individual data points from graded dose-response curves with Prism 8.0 software (GraphPad, La Jolla, CA, USA). Percent antinociception was used to determine within group effects and to allow comparison to baseline latency in tail-withdrawal experiments. The statistical significance of differences between ED50 values was determined by evaluation of the ED50 value shift via nonlinear regression modeling with Prism software. Significant differences in behavioral data were analyzed by ANOVA (one-way or two-way with repeated measures (RM), as appropriate). Significant results were further analyzed with Sidak’s, Tukey’s, or Dunnett’s multiple comparison post hoc tests, as appropriate. Data for conditioned place preference experiments were analyzed by two-way RM ANOVA, with analyses examining the main effect of conditioned place preference phase (e.g., pre- or post-conditioning) and the interaction of drug pretreatment. Significant effects were further analyzed using Sidak’s HSD post hoc testing. All data are presented as mean ± SEM, with significance set at p < 0.05.

[2] = tested on: C57BL/6J mice; conditions: mouse, in vivo
[3] = Metabolic stability in mouse liver microsomes; type: in vitro ADME; conditions: pH 7.4, 5 µM peptide, 0.25 mg/mL protein, with NADPH, 37 °C, read-out: t1/2 in mouse liver microsomes
Method: The macrocyclic tetrapeptide (5 µM) in 1% acetonitrile was incubated with mouse liver microsomes (0.25 mg/mL protein, Xenotech, Lenexa, KS, USA) at 37 °C in the presence or absence of co-factor NADPH RapidStart System (1 mM, Xenotech) or NADPH solution (Sigma, St. Louis, MO, USA) in potassium phosphate buffer (50 mM, pH 7.4). Aliquots (100 µL) taken at 0, 5, 15, 30, 60 and 120 min were quenched with ice-cold acetonitrile (1 vol) containing internal standard ([D-NMeAla^2]CJ-15,208 [26], 5 µM) to precipitate the proteins. The lack of endogenous interference with the analysis of the stereoisomer or internal standard was confirmed by analyzing samples lacking the macrocyclic tetrapeptide.
Following centrifugation at 10,000× g rpm for 10 min, the supernatant (50 µL) was diluted with water (75 µL), stored overnight at −20 °C and analyzed by LC-MS/MS using methodology similar to that described for [D-Trp]CJ-15,208 [32]. Liquid chromatography was performed on a Hypersil BDS C8 column (50 mm × 2.1 mm, 3 µm) with a flow rate of 0.2 mL/min and an injection volume of 20 µL using an Acquity UPLC system (Waters, Milford, MA, USA). The peptides were separated using a gradient of aqueous acetonitrile containing 0.08% formic acid of 20% B (0–2 min), 20–50% B (2–3 min), 50–80% B (3–6 min), 80% B (6–7 min), 80–20% B (7–8 min) and 20% B (8–10 min).
ESI-MS/MS was performed on a Waters Quatro triple quadrupole instrument operating in the positive ion multiple reaction monitoring mode. Data acquisition was carried out with Mass Lynx 4.1 software with the following settings: capillary voltage, 2500 V; cone voltage, 30 V; source temperature, 100 °C; desolvation temperature, 250 °C; cone gas flow, 279 L/h; desolvation gas flow, 1157 L/h; LM 1 resolution, 14; HM 1 resolution, 14; ion energy 1, 1.0; MS/MS mode entrance, -1; MS/MS collision energy, 35 eV; MS/MS mode exit, 2; LM 2 resolution, 13.0; HM 2 resolution, 13.0; ion energy 2, 1.5; multiplier, 650; collision cell pressure, 1.63 × 10^−3 mbar; collision gas, argon. The transition m/z 578.2 ([M + H]^+) → 217.2 was monitored to determine the peak area counts of the stereoisomers, and m/z 566.2 ([M + H]^+) → 232.9 was monitored to determine the peak area counts of the internal standard (collision energy 22 eV) with the following settings: dwell time, 0.3 s; delay, 0.05 s.

[4] = target: T1, rat KOR (Rattus norvegicus, UniProt P34975); assay: biochemical
T1 sequence (P34975 whole entry): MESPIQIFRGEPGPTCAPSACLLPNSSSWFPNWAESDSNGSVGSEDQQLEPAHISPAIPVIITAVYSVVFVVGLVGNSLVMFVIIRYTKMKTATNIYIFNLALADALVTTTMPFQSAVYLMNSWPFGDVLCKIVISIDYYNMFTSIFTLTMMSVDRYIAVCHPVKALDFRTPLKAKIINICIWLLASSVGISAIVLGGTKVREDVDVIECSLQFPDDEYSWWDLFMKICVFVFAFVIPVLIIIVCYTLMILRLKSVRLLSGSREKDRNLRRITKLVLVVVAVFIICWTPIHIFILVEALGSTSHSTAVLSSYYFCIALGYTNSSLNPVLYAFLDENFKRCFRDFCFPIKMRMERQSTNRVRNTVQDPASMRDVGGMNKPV

[5] = target: T2, rat MOR (Rattus norvegicus, UniProt P33535); assay: Radioligand equilibrium competition binding, MOR; conditions: [3H]DAMGO; membranes from CHO cells expressing rat MOR; mean ± SEM, at least three experiments
T2 construct: expressed in transfected cells
T2 sequence (P33535 whole entry): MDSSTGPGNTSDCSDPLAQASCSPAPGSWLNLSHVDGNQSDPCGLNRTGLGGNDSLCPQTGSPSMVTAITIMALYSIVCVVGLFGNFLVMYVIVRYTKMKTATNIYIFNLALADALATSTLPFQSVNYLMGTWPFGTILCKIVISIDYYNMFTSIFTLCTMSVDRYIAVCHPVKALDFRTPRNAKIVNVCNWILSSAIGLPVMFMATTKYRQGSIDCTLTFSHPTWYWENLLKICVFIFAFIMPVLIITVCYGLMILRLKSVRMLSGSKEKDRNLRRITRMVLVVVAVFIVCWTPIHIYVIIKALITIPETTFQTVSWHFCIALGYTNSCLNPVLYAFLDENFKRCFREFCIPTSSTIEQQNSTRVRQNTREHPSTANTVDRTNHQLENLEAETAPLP

[6] = target: T1, rat KOR; conditions: ratio Ki(MOR)/Ki(KOR)
[7] = tested on: C57BL/6J mice; assay: Acute antinociceptive tolerance (tail-withdrawal assay, dosing at 0 and 8 h); conditions: i.c.v.; for Fold-Shift, Naïve ED50 vs. Second ED50: 0 h vs 8 h; for ED50 (95% C.I.) Pretreated Mice: 8 h after pretreatment with ED50 dose of the same compound, * significantly different from naïve; for acute antinociceptive tolerance: ED50 at 8 h vs 0 h; for Naïve ED50 (95% C.I.): naïve C57BL/6J mice, tail-withdrawal assay
[8] = tested on: C57BL/6J mice; assay: Opioid receptor involvement in antinociception (antagonist pretreatment, tail-withdrawal assay); type: in vivo, mouse; conditions: i.c.v. (1, 3, 4, 5 at 10 nmol, 2 at 100 nmol); pretreatment with β-FNA, nor-BNI or naltrindole
[9] = tested on: C57BL/6J mice; conditions: mouse, in vivo; remark: listed apart in the source
[10] = tested on: C57BL/6J mice; conditions: mouse, in vivo; remark: listed apart in the source
[11] = tested on: C57BL/6J mice; design: key to ED50 i.c.v. (symbol: not calculable) / ED50 p.o. (symbol: not calculable): ~: Maximum antinociception not achieved, precluding calculation of an ED50 value; conditions: ref [19], cited from earlier work
[12] = tested on: mouse DOR; conditions: radioligand binding; ref [19]; cited from earlier work
[13] = i.c.v., C57BL/6J mice, antinociception at peak response

SMILES	antinociception at the highest oral dose tested ([1]; p.o.)	time of peak antinociception ([1]; after i.c.v. administration)	duration of significant antinociception ([1]; i.c.v. administration)	ED50 (and 95% C.I.) i.c.v. [1, 13]	ED50 p.o. (symbol: not calculable) ([1]; p.o., C57BL/6J mice)	effect on coordinated locomotor performance (rotarod) vs vehicle [2]	half-life at 5 µM [3]	Ki [4]	Ki [5]	Selectivity Ki (MOR) Ki (KOR) [6]	Fold-Shift, Naïve ED50 vs. Second ED50 [7]	ED50 (95% C.I.) Pretreated Mice [7]	acute antinociceptive tolerance [7]	Naïve ED50 (95% C.I.) [7]	Receptors Involved (in antinociception) [8]	other results
O=C1N[C@@H](Cc2ccccc2)C(=O)N2CCC[C@@H]2C(=O)N[C@H](Cc2ccccc2)C(=O)N[C@H]1Cc1c[nH]c2ccccc12 (single isomer, unassigned) [Stereoisomer 2, cyclo[Phe-D-Pro-D-Phe-Trp]]	45–60%	30 min	90 min	20.4 (10–58.7) nmol	~	lacked any significant effect	15 min	0.362 ± 0.051 µM	3920 ± 200 nM	11	6.13 fold	125 (89.9–224) nmol	the increase was not statistically significant	20.4 (10–58.7) nmol	KOR- and MOR-mediated antinociception	antinociception at the highest dose tested ([1]; 100 nmol, i.c.v.): approximately 70%
O=C1N[C@H](Cc2ccccc2)C(=O)N2CCC[C@@H]2C(=O)N[C@H](Cc2ccccc2)C(=O)N[C@H]1Cc1c[nH]c2ccccc12 (single isomer, unassigned) [Stereoisomer 3, cyclo[D-Phe-D-Pro-D-Phe-Trp]]	–	20 min	45 min	1.00 (0.64–1.60) nmol	–	lacked any significant effect	6 min	2.56 ± 0.48 µM	7780 ± 410 nM	3	5.19 fold	–	greater acute antinociceptive tolerance than CJ-15,208	1.00 (0.64–1.60) nmol	KOR- and DOR-mediated	antinociceptive efficacy ([1]; p.o.): full antinociception; time of peak antinociception ([1]; p.o. administration): 20 to 30 min; ED50 (and 95% C.I.) p.o. ([1]; p.o., C57BL/6J mice, antinociception at peak response): 4.12 (3.30–5.31) mg/kg; effect on ambulation vs vehicle [9]: elevated ambulations at several time-points; conditioned place preference or aversion [10]: no significant preference or aversion
O=C1N[C@H](Cc2c[nH]c3ccccc23)C(=O)N[C@H](Cc2ccccc2)C(=O)N2CCC[C@@H]2C(=O)N[C@H]1Cc1ccccc1 (single isomer, unassigned) [Stereoisomer 4, cyclo[D-Phe-D-Pro-Phe-D-Trp]]	45–60%	20 min	45 min	2.39 (1.40–4.56) nmol	~	limited impairment of performance	30 min	> 10 µM	> 10000 nM	–	0.54 fold	1.28 (0.96–1.66) nmol	Neither stereoisomer 4 or 5 demonstrated any significant changes in the ED50 values	2.39 (1.40–4.56) nmol	KOR- and DOR-mediated	duration of significant antinociception ([1]; p.o. administration): 30 to 40 min; effect on respiration rate vs vehicle [9]: significant decreases in respiration rates
O=C1N[C@H](Cc2c[nH]c3ccccc23)C(=O)N[C@@H](Cc2ccccc2)C(=O)N2CCC[C@@H]2C(=O)N[C@H]1Cc1ccccc1 [[D-Trp]CJ-15,208, cyclo[Phe-D-Pro-Phe-D-Trp]]	–	–	–	–	–	–	–	0.0218 ± 0.0048 µM	–	12	–	–	–	–	–	ED50 i.c.v. (symbol: not calculable) ([11]; i.c.v., mice, [21]): ~; ED50 p.o. (symbol: not calculable) ([11]; p.o., mice, [21]): ~; antinociceptive activity [11]: minimal antinociceptive activity; affinity for DOR [12]: negligible affinity for DOR
